Results reported in paper PMC7501296, “Rapid and direct control of target protein levels with VHL-recruiting dTAG molecules” (Nature Communications, 2020).
Values joined by “and” are separate entries in the source; they are usually repeats but may differ in a detail not shown here. Equal values may be shown once.

Assays:
Format in all cases: cell-based
FKBP12^F36V-KRAS^G12V = target: T1, FKBP12^F36V-KRAS^G12V (Homo sapiens, UniProt P01116+P62942, F37V/G12V); assay: Immunoblot of PATU-8902 FKBP12F36V-KRASG12V; KRAS-/- clone; conditions: pretreated 2 h prior to dTAGV-1 for 4 h
T1 construct: KRAS G12V (fusion partner, same polypeptide); expressed in transfected cells
T1 sequence (P62942+P01116 fused P62942:F37V/P01116:G12V): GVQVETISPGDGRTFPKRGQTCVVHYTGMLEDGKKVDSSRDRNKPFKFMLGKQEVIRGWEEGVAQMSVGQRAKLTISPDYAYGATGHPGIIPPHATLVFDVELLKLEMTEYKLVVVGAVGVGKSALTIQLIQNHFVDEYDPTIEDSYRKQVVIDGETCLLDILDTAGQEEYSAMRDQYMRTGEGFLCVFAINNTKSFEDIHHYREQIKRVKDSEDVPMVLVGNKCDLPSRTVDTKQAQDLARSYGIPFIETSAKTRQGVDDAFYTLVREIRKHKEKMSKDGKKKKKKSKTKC
Description: (§1) PATU-8902 LACZ-FKBP12^F36V and FKBP12^F36V-KRAS^G12V; KRAS^−/− cells and 293T cells were lysed with RIPA buffer supplemented with cOmplete protease inhibitors (Roche), PhosSTOP phosphatase inhibitors (Roche), and 0.1% benzonase (Novagen). Proteins were separated using NuPAGE Bolt^TM Bis–Tris gels (Thermo Fisher Scientific) and transferred to nitrocellulose membranes, which were blocked with Odyssey Blocking Buffer (LI-COR) and incubated with primary antibodies overnight. Membranes were washed three times with TBS-T, incubated with the appropriate fluorescently labeled infrared secondary antibodies, washed again three times with TBS-T, and assessed using an Odyssey CLx Imager (LI-COR)[6],[15]. EWS502 cells were lysed with Cell Lysis Buffer (Cell Signaling Technology) supplemented with cOmplete protease inhibitors (Roche). Proteins were separated using SDS-PAGE gels and transferred to PVDF membranes, which were blocked with 5% milk in TBS-T and incubated with primary antibodies overnight. Membranes were washed five times with TBS-T, incubated with the appropriate horseradish peroxidase-conjugated secondary antibodies, washed again five times with TBS-T, and imaged. The following primary antibodies were employed in this study: HA (Cell Signaling Technology #3724 and #2367, dilution at 1:1000), phospho-ERK1/2 T202/Y204 (Cell Signaling Technology #4370, dilution at 1:1000), ERK1/2 (Cell Signaling Technology #4696, dilution at 1:1000), phospho-AKT S473 (Cell Signaling Technology #4060, dilution at 1:1000), AKT (Cell Signaling Technology #2920, dilution at 1:1000), FKBP12 (Abcam #ab24373, dilution at 1:1000), GFP (Cell Signaling Technology #2555, dilution at 1:1000), FLI (Abcam #ab15289, dilution at 1:2000), NKX2-2 (Abcam #ab187375, dilution at 1:1000), GAPDH (Cell Signaling Technology #2118, dilution at 1:3000), Vinculin (Cell Signaling Technology #13901, dilution at 1:3000), β-Actin (Cell Signaling Technology #58169, dilution at 1:3000), and α-Tubulin (Cell Signaling Technology #3873, dilution at 1:5000). Species-specific fluorescently labeled infrared secondary antibodies including IRDye 680LT anti-Mouse IgG (LI-COR #926-68020, dilution at 1:5000), IRDye 800CW anti-Mouse IgG (LI-COR #926-32210, dilution at 1:5000), IRDye 680LT anti-Rabbit IgG (LI-COR #926-68021, dilution at 1:5000), and IRDye 800CW anti-Rabbit IgG (LI-COR #926-32211, dilution at 1:5000) and peroxidase-linked secondary antibodies including anti-Mouse IgG (Thermo Fisher Scientific #45000680, dilution at 1:5000) and anti-Rabbit IgG (Thermo Fisher Scientific #45000682, dilution at 1:5000) were employed as appropriate.

[1] = tested on: PATU-8902 LACZ-FKBP12^F36V clone; assay: Antiproliferation, PATU-8902 LACZ-FKBP12F36V clone, 2D-monolayer (CellTiter-Glo)
How it was run: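 Viability of cells grown as 2D-adherent monolayers was determined with the CellTiter-Glo luminescent reagent (Promega). Luminescence signals were read on either an Envision 2104 plate reader (PerkinElmer) or a Fluostar Omega Reader (BMG Labtech), and the resulting data were processed and analyzed in GraphPad PRISM v8 software.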

[2] = tested on: PATU-8902 FKBP12^F36V-KRAS^G12V; KRAS^-/- clone; assay: Antiproliferation, PATU-8902 FKBP12F36V-KRASG12V; KRAS-/- clone, 2D-monolayer (CellTiter-Glo)
FKBP12^F36V-EWS/FLI = assay: Immunoblot of EWS502 FKBP12F36V-EWS/FLI; EWS/FLI-/- cells
Description: To generate 293T^WT FKBP12^F36V-KRAS^G12V and 293T^VHL−/− FKBP12^F36V-KRAS^G12V cells, concentrated lentiviral supernatants[6] were applied to 293T^WT and 293T^VHL−/− cells[33] in the presence of 4 µg mL^−1 polybrene and transduced cell lines were selected with 2 µg mL^−1 puromycin. To generate EWS502 FKBP12^F36V-GFP cells, EWS502 cells were transduced with pLEX_305-dTAG-GFP lentiviral supernatant and selected with 1 µg mL^−1 puromycin. To generate EWS502 FKBP12^F36V-EWS/FLI; EWS/FLI^−/− cells, EWS502 cells were co-transduced with pLEX_305-dTAG-EWS/FLI and lentiCRISPR v2-Blast-sgFLI_Ex9 lentiviral supernatants. Cells were then selected with both 1 µg mL^−1 puromycin (pLEX_305-dTAG-EWS/FLI) and 5 µg mL^−1 blasticidin (lentiCRISPR v2-Blast-sgFLI_Ex9). Knockout of endogenous EWS/FLI and the expression of exogenous FKBP12^F36V-EWS/FLI were confirmed by immunoblot and pooled transduced cell populations were employed for this study. PATU-8902 LACZ-FKBP12^F36V and FKBP12^F36V-KRAS^G12V; KRAS^−/− clones were also employed in this study.
PATU-8902 LACZ-FKBP12^F36V and FKBP12^F36V-KRAS^G12V; KRAS^−/− cells and 293T cells were lysed with RIPA buffer supplemented with cOmplete protease inhibitors (Roche), PhosSTOP phosphatase inhibitors (Roche), and 0.1% benzonase (Novagen). Proteins were separated using NuPAGE Bolt^TM Bis–Tris gels (Thermo Fisher Scientific) and transferred to nitrocellulose membranes, which were blocked with Odyssey Blocking Buffer (LI-COR) and incubated with primary antibodies overnight. Membranes were washed three times with TBS-T, incubated with the appropriate fluorescently labeled infrared secondary antibodies, washed again three times with TBS-T, and assessed using an Odyssey CLx Imager (LI-COR)[6],[15]. EWS502 cells were lysed with Cell Lysis Buffer (Cell Signaling Technology) supplemented with cOmplete protease inhibitors (Roche). Proteins were separated using SDS-PAGE gels and transferred to PVDF membranes, which were blocked with 5% milk in TBS-T and incubated with primary antibodies overnight. Membranes were washed five times with TBS-T, incubated with the appropriate horseradish peroxidase-conjugated secondary antibodies, washed again five times with TBS-T, and imaged. […]

[3] = tested on: EWS502 FKBP12^F36V-EWS/FLI; EWS/FLI^−/− cells; assay: Relative growth of EWS502 FKBP12F36V-EWS/FLI; EWS/FLI-/- cells (CellTiter-Glo); conditions: for Antiproliferation (relative growth): replicate values
Description: Cell viability was assayed in 2D-adherent or ultra-low adherent 3D-spheroids using CellTiter-Glo (Promega)[6],[15]. Luminescence was measured on an Envision 2104 plate reader (PerkinElmer) and Fluostar Omega Reader (BMG Labtech) and data was analyzed using GraphPad PRISM v8. Synergy assessments were performed using CellTiter-Glo (Promega) with the following modifications to the protocol described in the ref. [34]. In brief, EWS502 cells were plated at 1000 cells per well in 50 µL of appropriate media in 384-well white culture plates (Corning) allowed to adhere overnight, and 100 nL of compounds were added using a Janus Workstation pin tool (PerkinElmer) for 72 h. Cell viability was measured by addition of 10 µL of CellTiter-glo (Promega), followed by incubation for 15 minutes at room temperature. Luminescence was measured on an Envision 2104 plate reader (PerkinElmer) and data was analyzed using GraphPad PRISM v8.

CDK9 = target: T2, CDK9 (Homo sapiens, UniProt P50750); assay: Immunoblot, co-treatment with THAL-SNS-032 and/or dTAGV-1 in PATU-8902 LACZ-FKBP12F36V clone; conditions: co-treatment dTAGV-1 + THAL-SNS-032, 24 h
T2 construct: endogenous in cells; host or cells: PATU-8902 LACZ-FKBP12^F36V clone
Description: as §1, with “Species-specific fluorescently labeled infrared secondary antibodies including IRDye 680LT anti-Mouse IgG (LI-COR #926-68020, dilution at 1:5000), IRDye 800CW anti-Mouse IgG (LI-COR #926-32210, dilution at 1:5000), IRDye 680LT anti-Rabbit IgG (LI-COR #926-68021, dilution at 1:5000), and IRDye 800CW anti-Rabbit IgG (LI-COR #926-32211, dilution at 1:5000) and peroxidase-linked secondary antibodies including anti-Mouse IgG (Thermo Fisher Scientific #45000680, dilution at 1:5000) and anti-Rabbit IgG (Thermo Fisher Scientific #45000682, dilution at 1:5000) were employed as appropriate.” left out

With `NS(=O)(=O)OC[C@@H]1C[C@@H](n2ccc3c(N[C@H]4CCc5ccccc54)ncnc32)C[C@@H]1O` [MLN4924] the “Effect of pre-treatment on dTAGV-1-induced KRASG12V degradation” value (FKBP12^F36V-KRAS^G12V) was “rescued”.
`CC[C@H](C(=O)N1CCCC[C@H]1C(=O)O[C@H](CCc1ccc(OC)c(OC)c1)c1ccccc1OCC(=O)NCCOCCOCCOCC(=O)N[C@H](C(=O)N1C[C@H](O)C[C@H]1C(=O)N[C@@H](C)c1ccc(-c2scnc2C)cc1)C(C)(C)C)c1cc(OC)c(OC)c(OC)c1` [dTAG-63] was tested, and the DMSO-normalized antiproliferation ([1]; log10[compound] (M) -4.69897) was 13.2737 and 12.6329 and 14.1104 and 10.912, the DMSO-normalized antiproliferation ([1]; log10[compound] (M) -5.19897) was 7.875 and 6.856 and 8.909 and 8.0101 and the DMSO-normalized antiproliferation ([1]; log10[compound] (M) -5.69897) was 78.4433 and 69.3624 and 75.8082 and 79.7492. The DMSO-normalized antiproliferation ([1]; log10[compound] (M) -6.19897) was 113.01 and 109.862 and 96.0186 and 107.676, the DMSO-normalized antiproliferation ([1]; log10[compound] (M) -6.69897) was 108.532 and 100.339 and 100.126 and 107.64 and the DMSO-normalized antiproliferation ([1]; log10[compound] (M) -7.19897) was 112.463 and 103.538 and 107.565 and 99.0951. The DMSO-normalized antiproliferation ([1]; log10[compound] (M) -7.69897) was 105.646 and 110.739 and 108.339 and 103.433, the DMSO-normalized antiproliferation ([1]; log10[compound] (M) -8.19897) was 104.397 and 99.4398 and 102.394 and 104.585 and the DMSO-normalized antiproliferation ([1]; log10[compound] (M) -8.69897) was 100.586 and 98.6181 and 103.288 and 91.8912. The DMSO-normalized antiproliferation ([1]; log10[compound] (M) -9.19897) was 97.4681 and 95.2333 and 95.4033 and 78.5397, the DMSO-normalized antiproliferation ([2]; log10[compound] (M) -4.69897) was 1.902 and 1.7836 and 2.592 and 1.417 and the DMSO-normalized antiproliferation ([2]; log10[compound] (M) -5.19897) was 1.019 and 0.7215 and 1.043 and 0.8704. For the same compound, the DMSO-normalized antiproliferation ([2]; log10[compound] (M) -5.69897) was 18.9261 and 16.9894 and 19.5961 and 18.1242, the DMSO-normalized antiproliferation ([2]; log10[compound] (M) -6.19897) was 26.0652 and 23.4484 and 26.4223 and 22.5834 and the DMSO-normalized antiproliferation ([2]; log10[compound] (M) -6.69897) was 29.8671 and 30.9365 and 33.7587 and 28.015. For the same compound, the DMSO-normalized antiproliferation ([2]; log10[compound] (M) -7.19897) was 63.0328 and 57.9113 and 61.3608 and 60.3114, the DMSO-normalized antiproliferation ([2]; log10[compound] (M) -7.69897) was 91.5315 and 97.3637 and 98.717 and 90.5671 and the DMSO-normalized antiproliferation ([2]; log10[compound] (M) -8.19897) was 103.715 and 106.791 and 102.663 and 104. The DMSO-normalized antiproliferation ([2]; log10[compound] (M) -8.69897) was 99.9165 and 93.5571 and 104.512 and 109.434, the DMSO-normalized antiproliferation ([2]; log10[compound] (M) -9.19897) was 108.333 and 105.196 and 111.04 and 104.691 and the “FKBP12F36V-EWS/FLI degradation, immunoblot” value (FKBP12^F36V-EWS/FLI; EWS502 FKBP12F36V-EWS/FLI, EWS/FLI-/- cells) was “marginal degradation”. For the same compound, the “NKX2-2 protein levels, immunoblot” value (FKBP12^F36V-EWS/FLI; relative to dTAGV-1) was “limited changes”, the “Antiproliferation (relative growth)” value ([3]; Time 0 days) was 1.033 and 1 and 1.041 and 1.01 and 1.018 and 1.028 and 1.023 and 0.847 and the “Antiproliferation (relative growth)” value ([3]; Time 3 days) was 5.323 and 5.646 and 6.274 and 5.9 and 5.4745 and 5.572 and 6.329 and 5.374. For the same compound, the “Antiproliferation (relative growth)” value ([3]; Time 5 days) was 8.718 and 8.673 and 8.208 and 9.16 and 8.872 and 9.224 and 8.694 and 9.906, the “Antiproliferation (relative growth)” value ([3]; Time 7 days) was 8.087 and 8.192 and 8.728 and 8.891 and 8.43 and 7.949 and 9.536 and 9.221 and the “Antiproliferative effects upon EWS/FLI degradation” value ([3]; longer time-points) was “modest antiproliferative effects”.
For `CC(C)C[C@H](NC(=O)[C@H](CCc1ccccc1)NC(=O)CN1CCOCC1)C(=O)N[C@@H](Cc1ccccc1)C(=O)N[C@@H](CC(C)C)C(=O)[C@@]1(C)CO1` [carfilzomib], the “Effect of pre-treatment on dTAGV-1-induced KRASG12V degradation” value (FKBP12^F36V-KRAS^G12V) was “rescued”.
In the case of `CC(C)(C)c1cnc(CSc2cnc(NC(=O)C3CCN(CC(=O)NCCOCCOCCOCCNc4cccc5c4C(=O)N(C4CCC(=O)NC4=O)C5=O)CC3)s2)o1` (stereo not drawn) [THAL-SNS-032], the “Degradation of both LACZ-FKBP12F36V and CDK9 on co-treatment” value (CDK9) is reported as “pronounced degradation”.
